Data published in ChEMBL document CHEMBL1144346, “Synthesis, DNA affinity, and antiprotozoal activity of fused ring dicationic compounds and their prodrugs” (J Med Chem, 2005).

Key:
Nucleic Acid = experiment: poly(d(A-T)2) binding affinity is measured as change in DNA melting temperature; assay type: nucleic-acid assay
Plasmodium falciparum = experiment: In vitro antiprotozoal activity for Plasmodium falciparum K1; assay type: functional, organism-based
L6 = experiment: In vitro cytotoxicity evaluated using cultured L6 rat myoblast cells; assay type: functional; conditions: read-out: TD50 (the source's name)
Mus musculus [1] = experiment: In vivo antitrypanosomal activity (20 mg/kg for 4 days, i.p.) measured as survival days of mice infected with Trypanosoma brucei rhodesiense strain STIB900; assay type: functional
Mus musculus [2] = experiment: In vivo antitrypanosomal activity (20 mg/kg for 4 days, i.p.) measured as cured mice infected with Trypanosoma brucei rhodesiense strain STIB900; 0 cured out of 4; assay type: functional
[3] = test system: Trypanosoma brucei rhodesiense; experiment: In vitro antiprotozoal activity against Trypanosoma brucei rhodesiense strain STIB900; assay type: functional, organism-based
Mus musculus [4] = experiment: In vivo antitrypanosomal activity (25 mg/kg for 4 days, p.o.) measured as cured mice infected with Trypanosoma brucei rhodesiense strain STIB900; 2 cured out of 4
Mus musculus [5] = experiment: In vivo antitrypanosomal activity (100 mg/kg for 4 days, p.o.) measured as cured mice infected with Trypanosoma brucei rhodesiense strain STIB900; 0 cured out of 4
Mus musculus [6] = experiment: as above; remark: listed apart in the source
Mus musculus [7] = experiment: In vivo antitrypanosomal activity (100 mg/kg for 4 days, p.o.) measured as survival days of mice infected with Trypanosoma brucei rhodesiense strain STIB900
Mus musculus [8] = experiment: In vivo antitrypanosomal activity (20 mg/kg for 4 days, i.p.) measured as cured mice infected with Trypanosoma brucei rhodesiense strain STIB900; 3 cured out of 4; assay type: functional
Mus musculus [9] = experiment: In vivo antitrypanosomal activity (10 mg/kg for 4 days, i.p.) measured as cured mice infected with Trypanosoma brucei rhodesiense strain STIB900; 2 cured out of 4; assay type: functional
Mus musculus [10] = experiment: In vivo antitrypanosomal activity (10 mg/kg for 4 days, i.p.) measured as survival days of mice infected with Trypanosoma brucei rhodesiense strain STIB900; assay type: functional

Row | SMILES | delta Tm (Nucleic Acid) | IC50 (Plasmodium falciparum) | CC50 (L6) | IC50 [3] | also measured
1 | N=C(N)c1ccc(OCCCCCOc2ccc(C(=N)N)cc2)cc1 [PENTAMIDINE] | 12.6 °C | 0.0346 µM | 1.5 µM | 0.0023 µM | Survival (Mus musculus [1]): 40.8 days; Cures (Mus musculus [2]): 0
2 | CC/N=C(/NC(=O)OCC)Nc1ccc2c(c1)Cc1cc(/N=C(/NCC)NC(=O)OCC)ccc1-2 |  | 4.1 µM | 174 µM | 8 µM | 
3 | CCOC(=O)N/C(=N/C)Nc1ccc2c(c1)Cc1cc(N/C(=N\C)NC(=O)OCC)ccc1-2 |  | 10.3 µM | 95.6 µM | 2.9 µM | Cures (Mus musculus [4]): 2
4 | N=C(N)Nc1ccc2c(c1)Cc1cc(NC(=N)N)ccc1-2 | 13.6 °C |  | 4.7 µM |  | Survival (Mus musculus [1]): 6 days; Cures (Mus musculus [2]): 0
5 | CCOC(=O)NC(=N)Nc1ccc2c(c1)C(=O)c1cc(NC(=N)NC(=O)OCC)ccc1-2 |  | 3.2 µM | > 200 µM | 12.9 µM | Cures (Mus musculus [5]): 0
6 | CC(C)CONC(=N)Nc1ccc2c(c1)Cc1cc(NC(=N)NOCC(C)C)ccc1-2 |  | 0.351 µM | 68.4 µM | 21.2 µM | Cures (Mus musculus [6]): 0; Survival (Mus musculus [7]): 6.75 days
7 | N=C(N)c1ccc(-c2ccc(-c3ccc(C(=N)N)cc3)o2)cc1 [FURAMIDINE] | 25 °C |  | 6.4 µM |  | Survival (Mus musculus [1]): 52.5 days; Cures (Mus musculus [2]): 0
8 | C/N=C(/N)Nc1ccc2c(c1)Cc1cc(N/C(N)=N\C)ccc1-2 | 10.1 °C | 0.01 µM | 65.2 µM | 0.0126 µM | Survival (Mus musculus [1]): >52 days; Cures (Mus musculus [8]): 3
9 | N=C(N)Nc1ccc2c(c1)C(=O)c1cc(NC(=N)N)ccc1C2=O | 7.2 °C | 30.2 µM | 35.3 µM | 0.128 µM | 
10 | N=C(Nc1ccc2c(c1)Cc1cc(NC(=N)c3ccccn3)ccc1-2)c1ccccn1 | 15.2 °C | 1.2 µM | 98.7 µM | 0.894 µM | 
11 | CONC(=N)Nc1ccc2c(c1)Cc1cc(NC(=N)NOC)ccc1-2 |  | 3 µM | 137 µM | 47.5 µM | Cures (Mus musculus [6]): 0; Survival (Mus musculus [7]): 8 days
12 | N=C(N)Nc1ccc2c(c1)C(=O)c1cc(NC(=N)N)ccc1-2 | 6.1 °C | 0.268 µM | 41.5 µM | 0.0073 µM | Cures (Mus musculus [9]): 2; Survival (Mus musculus [10]): >50.75 days
13 | CC(C)/N=C(/N)Nc1ccc2c(c1)Cc1cc(N/C(N)=N\C(C)C)ccc1-2 | 9.3 °C | 0.0357 µM | 85.2 µM | 0.0404 µM | 
14 | CCOC(=O)NC(=N)Nc1ccc2c(c1)Cc1cc(NC(=N)NC(=O)OCC)ccc1-2 |  | 3.7 µM | > 201 µM | 0.814 µM | Cures (Mus musculus [6]): 0; Survival (Mus musculus [7]): 18.75 days
15 | N=C(Nc1ccc2c(c1)Cc1cc(NC(=N)c3ccccc3)ccc1-2)c1ccccc1 | 22 °C | 0.481 µM | 1.9 µM | 0.292 µM | 
16 | CCOC(=O)N/C(=N/C(C)C)Nc1ccc2c(c1)Cc1cc(N/C(=N\C(C)C)NC(=O)OCC)ccc1-2 |  | 6.3 µM | 94.2 µM | 2.5 µM | Cures (Mus musculus [6]): 0
17 | CC/N=C(/N)Nc1ccc2c(c1)Cc1cc(N/C(N)=N\CC)ccc1-2 | 10 °C | 0.0133 µM | 39.2 µM | 0.0169 µM | 
